From ChEMBL document CHEMBL1201862, “PubChem BioAssay data set” (2004) come the findings set out here.

Active and inactive are the calls of the source.

Experiment [1] has as its target Sphingosine 1-phosphate receptor 2 (Homo sapiens, UniProt O95136). The experiment in a line: Late stage counterscreen assay for S1P4 antagonists: Fluorescence dose response cell-based screening assay for antagonists of the Sphingosine 1-Phosphate Receptor 2 (S1P2). [Related pubchem assays (depositor defined):AID1510, AID1524, AID1692, AID1853, AID2332, AID489009, AID489017]. Type of experiment: functional. Background: The purpose of a counterscreen is to sort out artefacts and off-target activity.

Experiment [2] concerns the target Sphingosine 1-phosphate receptor 3 (Homo sapiens, UniProt Q99500). In words: Late stage counterscreen assay for S1P4 antagonists: Fluorescence dose response cell-based screening assay for antagonists of the Sphingosine 1-Phosphate Receptor 3 (S1P3). [Related pubchem assays (depositor defined):AID1510, AID1524, AID1692, AID1853, AID2332, AID489009, AID489017]. Type of experiment: functional.

Experiment [3] addresses Sphingosine 1-phosphate receptor 1 (Homo sapiens, UniProt P21453). The experiment in a line: Late stage counterscreen assay for S1P4 antagonists: Fluorescence dose response cell-based screening assay for antagonists of the Sphingosine 1-Phosphate Receptor 1 (S1P1). [Related pubchem assays (depositor defined):AID1510, AID1524, AID1692, AID1853, AID2332, AID489009, AID489017]. Format: functional.

Experiment [4] has as its target Sphingosine 1-phosphate receptor 5 (Homo sapiens, UniProt Q9H228). The experiment in a line: Late stage counterscreen assay for S1P4 antagonists: Fluorescence dose response cell-based screening assay for antagonists of the Sphingosine 1-Phosphate Receptor 5 (S1P5). [Related pubchem assays (depositor defined):AID1510, AID1524, AID1692, AID1853, AID2332, AID489009, AID489017]. Format: functional.

A further experiment relates to HEK293. The experiment in a line: cells. To be noted: Homo sapiens.
For experiment [5], the target named is Nucleotide-binding oligomerization domain-containing protein 2 (Homo sapiens, UniProt Q9HC29). In words: PubChem AID 2334. Format: functional.
A further experiment has as its target Tumor necrosis factor (Homo sapiens, UniProt P01375). In words: TNFa-triggered NF-kB activation inhibitors, SAR follow-up, cell-based, revised (AID 2337). Type of experiment: functional.
Experiment [6] addresses T1, Nucleotide-binding oligomerization domain-containing protein 1 (Homo sapiens, UniProt Q9Y239).
T1 sequence (Q9Y239 whole entry): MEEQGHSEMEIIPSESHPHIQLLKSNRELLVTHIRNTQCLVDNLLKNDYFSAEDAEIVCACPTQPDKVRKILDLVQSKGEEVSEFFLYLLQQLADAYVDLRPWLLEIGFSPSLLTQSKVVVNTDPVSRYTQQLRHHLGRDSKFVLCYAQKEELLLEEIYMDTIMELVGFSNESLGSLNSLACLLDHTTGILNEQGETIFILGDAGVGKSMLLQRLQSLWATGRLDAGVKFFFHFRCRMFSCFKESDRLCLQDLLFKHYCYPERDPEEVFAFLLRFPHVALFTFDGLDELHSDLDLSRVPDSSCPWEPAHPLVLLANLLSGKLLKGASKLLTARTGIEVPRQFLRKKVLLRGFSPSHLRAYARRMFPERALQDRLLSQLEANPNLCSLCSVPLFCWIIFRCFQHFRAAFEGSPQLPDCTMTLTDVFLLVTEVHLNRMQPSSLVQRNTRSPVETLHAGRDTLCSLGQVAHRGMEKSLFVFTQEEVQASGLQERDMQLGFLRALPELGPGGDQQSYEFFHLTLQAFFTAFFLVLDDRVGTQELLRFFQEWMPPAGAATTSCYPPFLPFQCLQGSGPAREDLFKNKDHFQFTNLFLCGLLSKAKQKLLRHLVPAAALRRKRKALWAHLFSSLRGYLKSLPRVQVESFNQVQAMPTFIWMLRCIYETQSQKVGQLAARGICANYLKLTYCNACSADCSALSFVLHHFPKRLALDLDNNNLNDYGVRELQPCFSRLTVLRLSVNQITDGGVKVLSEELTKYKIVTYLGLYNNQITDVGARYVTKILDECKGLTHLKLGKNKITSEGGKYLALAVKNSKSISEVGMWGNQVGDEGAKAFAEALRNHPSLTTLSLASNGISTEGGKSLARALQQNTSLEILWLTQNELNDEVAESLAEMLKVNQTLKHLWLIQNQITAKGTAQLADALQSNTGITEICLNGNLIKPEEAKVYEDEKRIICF
In words: NOD1 signaling inhibitors, SAR follow-up, revised (AID 2333). Type of experiment: functional.

Experiment [7] addresses T2, Kappa-type opioid receptor (Homo sapiens, UniProt P41145). In words: KOR agonist analogs, imaging readout, SAR follow-up, image-based (AID 2359). Type of experiment: functional.
Experiment [8] has as its target T3, Mu-type opioid receptor (Homo sapiens, UniProt P35372). The experiment in a line: MOR agonists by imaging, SAR follow-up, image-based (AID 2352). Format: functional.
In experiment [9] the target is T4, Delta-type opioid receptor (Homo sapiens, UniProt P41143). The experiment in a line: DOR antagonists, SAR follow-up, image-based (AID 2357). Type of experiment: functional.
Experiment [10] deals with T3, Mu-type opioid receptor. The experiment in a line: MOR antagonists, SAR follow-up, image-based (AID 2420).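 Further: compounds added before stimulation of receptor with agonist DAMGO.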 Type of experiment: functional.
Experiment [11] addresses T2, Kappa-type opioid receptor. In words: KOR antagonists by imaging, SAR follow-up, image-based (AID 2348). Type of experiment: functional.
The target of experiment [12] is T2, Kappa-type opioid receptor. The experiment in a line: kappa opioid receptor blockers, cell-based, luminescence, beta-arrestin, SAR follow-up (AID 2285). Type of experiment: functional.
Experiment [13] has as its target T4, Delta-type opioid receptor. The experiment in a line: DOR agonists, SAR follow-up, image-based (AID 2370). Format: functional.

T2 sequence (P41145 whole entry): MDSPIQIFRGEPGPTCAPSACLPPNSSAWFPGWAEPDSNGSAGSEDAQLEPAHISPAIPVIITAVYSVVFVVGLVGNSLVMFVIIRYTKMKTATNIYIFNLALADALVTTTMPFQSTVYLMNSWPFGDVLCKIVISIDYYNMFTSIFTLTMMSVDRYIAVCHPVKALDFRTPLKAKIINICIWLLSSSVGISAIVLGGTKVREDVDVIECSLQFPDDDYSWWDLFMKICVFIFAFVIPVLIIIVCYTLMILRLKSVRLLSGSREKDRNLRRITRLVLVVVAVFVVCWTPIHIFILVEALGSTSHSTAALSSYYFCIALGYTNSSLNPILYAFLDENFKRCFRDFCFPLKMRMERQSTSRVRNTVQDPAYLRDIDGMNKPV
T4 sequence (P41143 whole entry): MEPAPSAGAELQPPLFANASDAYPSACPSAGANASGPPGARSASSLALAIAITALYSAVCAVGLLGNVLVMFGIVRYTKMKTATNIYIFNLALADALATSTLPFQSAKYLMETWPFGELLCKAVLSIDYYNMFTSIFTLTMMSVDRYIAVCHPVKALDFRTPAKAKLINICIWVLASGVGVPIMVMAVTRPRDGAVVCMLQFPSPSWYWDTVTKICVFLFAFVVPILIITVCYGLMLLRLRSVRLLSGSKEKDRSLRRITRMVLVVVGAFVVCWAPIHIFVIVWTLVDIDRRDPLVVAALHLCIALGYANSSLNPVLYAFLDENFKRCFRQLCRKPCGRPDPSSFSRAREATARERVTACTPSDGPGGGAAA
T3 sequence (P35372 whole entry): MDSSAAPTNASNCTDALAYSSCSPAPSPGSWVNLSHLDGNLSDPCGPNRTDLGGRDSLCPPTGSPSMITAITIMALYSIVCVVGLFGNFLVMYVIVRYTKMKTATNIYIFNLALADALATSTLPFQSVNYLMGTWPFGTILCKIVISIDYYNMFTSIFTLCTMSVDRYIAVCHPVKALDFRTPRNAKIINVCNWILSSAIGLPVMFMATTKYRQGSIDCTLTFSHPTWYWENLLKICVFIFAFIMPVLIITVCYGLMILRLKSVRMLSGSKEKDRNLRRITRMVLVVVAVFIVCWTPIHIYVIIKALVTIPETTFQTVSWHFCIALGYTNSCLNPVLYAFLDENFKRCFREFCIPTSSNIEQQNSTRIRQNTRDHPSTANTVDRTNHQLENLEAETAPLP
Sequence of Sphingosine 1-phosphate receptor 5 (Q9H228 whole entry): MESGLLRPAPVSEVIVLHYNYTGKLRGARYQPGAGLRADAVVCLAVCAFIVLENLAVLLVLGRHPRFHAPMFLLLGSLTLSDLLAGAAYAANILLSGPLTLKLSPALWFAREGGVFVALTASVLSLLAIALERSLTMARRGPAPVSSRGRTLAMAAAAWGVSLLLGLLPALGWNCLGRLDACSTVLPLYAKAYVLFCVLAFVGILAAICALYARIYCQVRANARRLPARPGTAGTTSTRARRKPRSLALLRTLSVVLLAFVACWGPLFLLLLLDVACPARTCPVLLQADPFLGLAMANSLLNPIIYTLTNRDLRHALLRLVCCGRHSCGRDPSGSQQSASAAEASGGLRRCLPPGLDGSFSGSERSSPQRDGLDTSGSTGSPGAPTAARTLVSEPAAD
Sequence of Nucleotide-binding oligomerization domain-containing protein 2 (Q9HC29 whole entry, the tested form may be a part): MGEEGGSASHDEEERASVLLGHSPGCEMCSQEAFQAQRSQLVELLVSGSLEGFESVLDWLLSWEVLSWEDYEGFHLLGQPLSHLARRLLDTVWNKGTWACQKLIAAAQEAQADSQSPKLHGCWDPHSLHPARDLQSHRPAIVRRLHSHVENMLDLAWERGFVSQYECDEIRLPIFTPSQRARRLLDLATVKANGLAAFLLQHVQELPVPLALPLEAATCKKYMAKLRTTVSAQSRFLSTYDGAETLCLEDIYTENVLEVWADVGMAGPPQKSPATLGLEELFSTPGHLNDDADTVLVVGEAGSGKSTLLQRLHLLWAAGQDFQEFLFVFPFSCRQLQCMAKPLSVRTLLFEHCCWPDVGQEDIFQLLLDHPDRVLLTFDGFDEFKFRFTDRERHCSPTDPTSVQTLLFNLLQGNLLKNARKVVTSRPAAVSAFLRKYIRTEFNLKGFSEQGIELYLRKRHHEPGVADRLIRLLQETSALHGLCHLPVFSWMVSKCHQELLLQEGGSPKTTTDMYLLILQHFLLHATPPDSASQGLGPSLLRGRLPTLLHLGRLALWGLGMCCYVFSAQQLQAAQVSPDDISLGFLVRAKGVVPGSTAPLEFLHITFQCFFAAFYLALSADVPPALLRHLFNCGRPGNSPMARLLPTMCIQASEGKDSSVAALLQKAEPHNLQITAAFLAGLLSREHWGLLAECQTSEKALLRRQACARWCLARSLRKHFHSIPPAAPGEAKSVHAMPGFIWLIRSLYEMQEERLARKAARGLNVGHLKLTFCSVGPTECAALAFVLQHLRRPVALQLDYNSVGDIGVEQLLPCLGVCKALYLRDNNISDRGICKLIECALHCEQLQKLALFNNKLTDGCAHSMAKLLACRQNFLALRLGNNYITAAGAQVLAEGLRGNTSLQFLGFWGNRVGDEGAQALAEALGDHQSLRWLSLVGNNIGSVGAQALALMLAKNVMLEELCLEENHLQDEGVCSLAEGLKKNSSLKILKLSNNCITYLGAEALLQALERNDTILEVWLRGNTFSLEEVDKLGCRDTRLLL
Sequence of Sphingosine 1-phosphate receptor 2 (O95136 whole entry): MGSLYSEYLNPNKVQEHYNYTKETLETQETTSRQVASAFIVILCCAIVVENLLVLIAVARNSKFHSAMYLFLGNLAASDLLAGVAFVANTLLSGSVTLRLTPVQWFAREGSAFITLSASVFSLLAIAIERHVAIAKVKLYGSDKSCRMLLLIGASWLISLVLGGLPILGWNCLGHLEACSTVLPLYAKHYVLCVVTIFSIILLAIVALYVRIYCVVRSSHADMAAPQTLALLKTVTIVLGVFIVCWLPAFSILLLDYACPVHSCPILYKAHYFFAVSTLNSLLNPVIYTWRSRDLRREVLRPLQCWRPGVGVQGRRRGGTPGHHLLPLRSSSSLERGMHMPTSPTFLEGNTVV
Sequence of Sphingosine 1-phosphate receptor 1 (P21453 whole entry): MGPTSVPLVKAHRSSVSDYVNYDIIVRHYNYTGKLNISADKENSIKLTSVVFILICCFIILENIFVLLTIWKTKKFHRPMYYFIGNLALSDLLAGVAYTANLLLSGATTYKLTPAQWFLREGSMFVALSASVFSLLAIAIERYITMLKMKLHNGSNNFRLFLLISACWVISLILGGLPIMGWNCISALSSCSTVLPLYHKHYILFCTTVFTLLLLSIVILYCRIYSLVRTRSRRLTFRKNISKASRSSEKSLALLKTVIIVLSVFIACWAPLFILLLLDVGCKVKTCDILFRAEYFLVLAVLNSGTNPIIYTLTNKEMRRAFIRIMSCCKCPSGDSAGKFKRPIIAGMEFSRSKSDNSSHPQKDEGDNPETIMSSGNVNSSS
Sequence of Tumor necrosis factor (P01375 whole entry, the tested form may be a part): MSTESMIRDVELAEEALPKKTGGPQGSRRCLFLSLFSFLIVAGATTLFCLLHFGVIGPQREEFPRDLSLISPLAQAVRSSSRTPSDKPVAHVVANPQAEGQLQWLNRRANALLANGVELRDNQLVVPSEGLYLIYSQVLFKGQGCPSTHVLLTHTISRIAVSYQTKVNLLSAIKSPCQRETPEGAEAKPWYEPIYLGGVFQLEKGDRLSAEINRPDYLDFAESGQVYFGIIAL
Sequence of Sphingosine 1-phosphate receptor 3 (Q99500 whole entry): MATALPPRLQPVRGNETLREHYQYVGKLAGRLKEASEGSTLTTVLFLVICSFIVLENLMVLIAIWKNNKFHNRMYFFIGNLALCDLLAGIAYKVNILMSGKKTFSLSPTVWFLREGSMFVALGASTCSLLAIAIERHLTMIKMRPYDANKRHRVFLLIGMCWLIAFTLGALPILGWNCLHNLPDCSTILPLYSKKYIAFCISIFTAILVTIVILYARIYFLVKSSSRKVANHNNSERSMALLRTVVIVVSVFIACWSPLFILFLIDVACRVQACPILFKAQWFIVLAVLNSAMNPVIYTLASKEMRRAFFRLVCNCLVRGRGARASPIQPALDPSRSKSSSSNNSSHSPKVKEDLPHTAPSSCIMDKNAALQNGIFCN

The term IC50 denotes the concentration that inhibits the measured activity by half. As to `COc1cccc(C)c1NC(=O)c1ccc(-c2cc(Cl)ccc2Cl)o1`, the concentration for half-maximal inhibition (IC50) in experiment [1] was 4.77 µM (active); in [2], 9.87 µM (active); in experiment [3], 9.31 µM (active); in experiment [4], 11.2 µM (inactive).
As for `CC(=O)Nc1nc2ccccc2n1S(=O)(=O)c1ccc(C)cc1`, the IC50 is > 20 µM (inactive) with HEK293, > 20 µM (inactive) in experiment [5], > 20 µM (inactive) on Tumor necrosis factor and 3.8 µM (active) in experiment [6].
As usually defined, the EC50 is the concentration that produces a half-maximal response. On to `O=C(NC(NC(=S)Nc1cccc(Br)c1)C(Cl)(Cl)Cl)OCc1ccccc1` (stereo not given), for which the EC50 (in experiment [7]; on Mu-type opioid receptor [8]; in experiment [13]) was > 32 µM (inactive) throughout. For the same molecule, the IC50 in experiment [9] was > 32 µM (inactive); at Mu-type opioid receptor [10], > 32 µM (inactive); in experiment [11], > 32 µM (inactive); in experiment [12] it was > 10 µM (inactive).
